According to PubChem BioAssay AID248 (DTP/NCI, 2004):
Where “and” joins values, the source holds several entries; their conditions need not be identical. Equal values may be shown once. Inconclusive results and toxic doses are left out. Rule as the data show it: active = T/C of 150% or more; inactive = T/C below 125%.

System: L1210 leukemia ip in BDF1 mice, survival T/C
Assay: NCI In Vivo Anticancer Drug Screen. Data for tumor model L1210 Leukemia (intraperitoneal) in B6D2F1 (BDF1) mice
Details: endpoint: mean survival time, higher = longer survival
How it was run: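 Tumor was transplanted into mice, which were then dosed with test compound or vehicle alone. Survival was recorded for each group, and the treated figure was expressed relative to the control figure.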

[1] = dose: 100.0 mg/kg/injection, schedule: Q01DX001 (ip), vehicle: saline with Tween-80
[2] = dose: 100.0 mg/kg/injection, schedule: Q01DX009 (ip), vehicle: saline with Tween-80
[3] = dose: 200.0 mg/kg/injection, schedule: Q01DX001 (ip), vehicle: saline with Tween-80
[4] = dose: 200.0 mg/kg/injection, schedule: Q01DX009 (ip), vehicle: saline with Tween-80
[5] = dose: 100.0 mg/kg/injection, schedule: Q04DX003 (ip), vehicle: Klucel (hydroxypropylcellulose) (HPC)
[6] = dose: 200.0 mg/kg/injection, schedule: Q04DX003 (ip), vehicle: Klucel (hydroxypropylcellulose) (HPC)
[7] = dose: 400.0 mg/kg/injection, schedule: Q04DX003 (ip), vehicle: Klucel (hydroxypropylcellulose) (HPC)
[8] = dose: 50.0 mg/kg/injection, schedule: Q01DX009 (ip), vehicle: saline
[9] = dose: 100.0 mg/kg/injection, schedule: Q01DX001 (ip), vehicle: saline
[10] = dose: 100.0 mg/kg/injection, schedule: Q01DX001 (ip), vehicle: other
[11] = dose: 200.0 mg/kg/injection, schedule: Q01DX001 (ip), vehicle: other
[12] = dose: 100.0 mg/kg/injection, schedule: Q01DX001 (ip), vehicle: Klucel (hydroxypropylcellulose) (HPC)
[13] = dose: 100.0 mg/kg/injection, schedule: Q01DX009 (ip), vehicle: Klucel (hydroxypropylcellulose) (HPC)
[14] = dose: 200.0 mg/kg/injection, schedule: Q01DX001 (ip), vehicle: Klucel (hydroxypropylcellulose) (HPC)
[15] = dose: 200.0 mg/kg/injection, schedule: Q01DX009 (ip), vehicle: Klucel (hydroxypropylcellulose) (HPC)
[16] = dose: 400.0 mg/kg/injection, schedule: Q01DX001 (ip), vehicle: Klucel (hydroxypropylcellulose) (HPC)
[17] = dose: 400.0 mg/kg/injection, schedule: Q01DX009 (ip), vehicle: Klucel (hydroxypropylcellulose) (HPC)
[18] = dose: 50.0 mg/kg/injection, schedule: Q01DX001 (ip), vehicle: saline
[19] = dose: 200.0 mg/kg/injection, schedule: Q01DX001 (ip), vehicle: saline
[20] = dose: 400.0 mg/kg/injection, schedule: Q01DX001 (ip), vehicle: saline

Measured: T/C

CC1(C)OC2OC(C(O)CSCc3ccccc3)C(O)C2O1 (centres undefined)
inactive: dose: 50.0 mg/kg/injection, schedule: Q01DX009 (ip), vehicle: saline with Tween-80 94 % of control | [1] 92 % of control | [2] 93 % of control | [3] 89 % of control | [4] 97 % of control

CCOC1OC(C(O)CO)C(O)C1O (centres undefined)
inactive: dose: 100.0 mg/kg/injection, schedule: Q04DX003 (ip), vehicle: saline with Tween-80 98 % of control | dose: 200.0 mg/kg/injection, schedule: Q04DX003 (ip), vehicle: saline with Tween-80 98 % of control | dose: 400.0 mg/kg/injection, schedule: Q04DX003 (ip), vehicle: saline with Tween-80 96 % of control

O=C1NC2C3C=CC(C3)C12 (centres undefined)
inactive: dose: 25.0 mg/kg/injection, schedule: Q04DX002 (ip), vehicle: Klucel (hydroxypropylcellulose) (HPC) 114 % of control | dose: 50.0 mg/kg/injection, schedule: Q04DX002 (ip), vehicle: Klucel (hydroxypropylcellulose) (HPC) 93 % of control | dose: 100.0 mg/kg/injection, schedule: Q04DX002 (ip), vehicle: Klucel (hydroxypropylcellulose) (HPC) 119 % of control and 86 % of control

Nc1nc([Se])c2cc[nH]c2n1
inactive: dose: 12.5 mg/kg/injection, schedule: Q01DX009 (ip), vehicle: water 107 % of control | dose: 25.0 mg/kg/injection, schedule: Q01DX009 (ip), vehicle: water 102 % of control | dose: 25.0 mg/kg/injection, schedule: Q04DX003 (ip), vehicle: water 97 % of control | dose: 50.0 mg/kg/injection, schedule: Q01DX009 (ip), vehicle: water 104 % of control | dose: 50.0 mg/kg/injection, schedule: Q04DX003 (ip), vehicle: water 102 % of control | dose: 100.0 mg/kg/injection, schedule: Q04DX003 (ip), vehicle: water 94 % of control and 95 % of control

CCCCCCCCCCCCN(C)S(=O)(=O)c1ccc(Cl)c(N)c1
inactive: [2] 95 % of control | [5] 91 % of control | [4] 89 % of control | [6] 108 % of control | dose: 400.0 mg/kg/injection, schedule: Q01DX009 (ip), vehicle: saline with Tween-80 93 % of control | [7] 89 % of control

O=C(Nc1ccc([N+](=O)[O-])cc1)Nc1ccc([N+](=O)[O-])c(C(F)(F)F)c1
inactive: dose: 12.5 mg/kg/injection, schedule: Q01DX009 (ip), vehicle: saline 87 % of control | dose: 15.0 mg/kg/injection, schedule: Q01DX015 (ip), vehicle: saline 97 % of control | dose: 25.0 mg/kg/injection, schedule: Q01DX009 (ip), vehicle: saline 90 % of control | dose: 25.0 mg/kg/injection, schedule: Q04DX003 (ip), vehicle: acetone 86 % of control | dose: 30.0 mg/kg/injection, schedule: Q01DX015 (ip), vehicle: saline 94 % of control | [8] 90 % of control | dose: 50.0 mg/kg/injection, schedule: Q04DX003 (ip), vehicle: acetone 88 % of control | dose: 60.0 mg/kg/injection, schedule: Q01DX015 (ip), vehicle: saline 92 % of control | dose: 75.0 mg/kg/injection, schedule: Q01DX009 (ip), vehicle: saline with Tween-80 102 % of control | [9] 94 % of control | dose: 115.0 mg/kg/injection, schedule: Q01DX009 (ip), vehicle: saline with Tween-80 100 % of control | dose: 120.0 mg/kg/injection, schedule: Q01DX015 (ip), vehicle: saline 90 % of control

CCOC(=O)C1C(O)CC2COC(=O)C2C1c1ccc(OC(C)=O)cc1 (centres undefined)
inactive: [10] 100 % of control | [11] 95 % of control

CCC(Cl)COP(=O)(OCC(Cl)CC)C(C)P(=O)(OCC(Cl)CC)OCC(Cl)CC (centres undefined)
inactive: dose: 62.5 mg/kg/injection, schedule: Q04DX003 (ip), vehicle: Klucel (hydroxypropylcellulose) (HPC) 96 % of control | dose: 125.0 mg/kg/injection, schedule: Q04DX003 (ip), vehicle: Klucel (hydroxypropylcellulose) (HPC) 97 % of control | dose: 250.0 mg/kg/injection, schedule: Q04DX003 (ip), vehicle: Klucel (hydroxypropylcellulose) (HPC) 96 % of control

Clc1ccc(/C=C2\c3cc(Cl)ccc3-c3c(Cl)cc(Cl)cc32)cc1
inactive: [12] 91 % of control | [13] 91 % of control | [5] 86 % of control | [14] 93 % of control | [15] 90 % of control | [6] 91 % of control | [16] 95 % of control | [17] 86 % of control | [7] 93 % of control

CC(=O)n1c(O)c(N=NC(=N)N[N+](=O)[O-])c2ccccc21
inactive: [1] 97 % of control | dose: 132.0 mg/kg/injection, schedule: Q01DX001 (ip), vehicle: saline with Tween-80 101 % of control | [3] 97 % of control | dose: 300.0 mg/kg/injection, schedule: Q01DX001 (ip), vehicle: saline with Tween-80 106 % of control | dose: 400.0 mg/kg/injection, schedule: Q01DX001 (ip), vehicle: saline with Tween-80 101 % of control

CC(=O)N(N=O)c1ccc([N+](=O)[O-])cc1Cl
inactive: [18] 102 % of control | [9] 102 % of control | [19] 100 % of control | [20] 102 % of control

C#CCCN1CCC2(CC1)C(=O)NCN2c1ccccc1
inactive: [12] 91 % of control | [14] 94 % of control | [16] 91 % of control

CCOC(=O)C1=NC=NC1=[N+]=[N-]
inactive: dose: 5.0 mg/kg/injection, schedule: Q01DX001 (ip), vehicle: saline 92 % of control | dose: 10.0 mg/kg/injection, schedule: Q01DX001 (ip), vehicle: saline 94 % of control | dose: 20.0 mg/kg/injection, schedule: Q01DX001 (ip), vehicle: saline 100 % of control

CC(C)=CCC/C(C)=C/Cn1ccccc1=O
inactive: [1] 98 % of control | [3] 98 % of control

CCCC(C)C(=O)OCP(=O)(COC(=O)C(C)CCC)COC(=O)C(C)CCC (centres undefined)
inactive: [1] 97 % of control | [3] 89 % of control

CC(=O)Nc1cc2ccccc2[n+](C)c1
inactive: dose: 12.5 mg/kg/injection, schedule: Q04DX003 (ip), vehicle: Klucel (hydroxypropylcellulose) (HPC) 94 % of control | dose: 25.0 mg/kg/injection, schedule: Q04DX003 (ip), vehicle: Klucel (hydroxypropylcellulose) (HPC) 98 % of control | dose: 50.0 mg/kg/injection, schedule: Q04DX003 (ip), vehicle: Klucel (hydroxypropylcellulose) (HPC) 96 % of control

NN1N=Nc2cccc3cccc1c23
inactive: [8] 96 % of control | dose: 100.0 mg/kg/injection, schedule: Q01DX009 (ip), vehicle: saline 107 % of control | dose: 100.0 mg/kg/injection, schedule: Q04DX003 (ip), vehicle: saline 92 % of control | dose: 200.0 mg/kg/injection, schedule: Q01DX009 (ip), vehicle: saline 88 % of control | dose: 200.0 mg/kg/injection, schedule: Q04DX003 (ip), vehicle: saline 91 % of control

C1=C\CCCC/C=C/CC/1
inactive: [18] 103 % of control | [9] 92 % of control | [19] 101 % of control | [20] 90 % of control

O=C1CCCCCCC12CCCCC2
inactive: [13] 88 % of control | [5] 102 % of control | [15] 98 % of control | [6] 95 % of control | [17] 98 % of control | [7] 91 % of control

Cn1c(=O)c2c(nc(OC3CCCC3)n2C)n(C)c1=O
inactive: dose: 50.0 mg/kg/injection, schedule: Q01DX001 (ip), vehicle: other 98 % of control | [10] 98 % of control | [11] 87 % of control
